The text below walks through data of article PMC2699469 (PLoS Pathogens, 2009).

Peptide text beside a SMILES is read from it. * marks the point of attachment. Palmitoyl = CCCCCCCCCCCCCCCC(=O)*

This assay deals with HIV-1 ENV-mediated fusion of Jurkat HXBc2 (effector) with Jurkat E6-1 (target) cells. Nature of the assay: Cell-cell fusion inhibition assay (DiI/DiD lipophilic probes, flow cytometry). The format is cell-based. Particulars: Jurkat E6-1 + Jurkat HXBc2 1:1, co-incubated 6 h, eight peptide concentrations, FACS, Hill-type fit; at least four independent experiments, ± standard deviation. How it is done: The protocol utilizing Jurkat E6-1 and Jurkat HXBc2 cells for a cell-cell fusion assay was previously described. In short, Jurkat E6-1 and Jurkat HXBc2 cells were labeled with DiI and DiD lipophilic fluorescent probes, respectively. The two cell populations were co-incubated, in a ratio of 1∶1, for 6 h in the presence of eight different concentrations of the inhibitory peptides. Prior to measurements the cells were washed, spinned, dissolved in PBS, and put on ice. Cells co-incubated without the presence of peptides served as an optimal fusion reference. Unlabeled cells that were handled similarly served as an intrinsic fluorescence control. Cells labeled separately with DiI or DiD were used to adjust the optimal separation of fluorescent signals. Jurkat HXBc2 cells labeled with DiI were co-incubated with Jurkat HXBc2 cells labeled with DiD for a fusion background that was subtracted from the measurements of the experiment. The following alterations were applied to the original protocol: (i) 5 µL of a 1 mg/mL DiI or DiD solution in dimethylsulfoxide (DMSO) was added to 1 mL of 4×10^6 cells/mL Jurkat E6-1 or Jurkat HXBc2 cells, respectively. (ii) For each data point 150,000 events were collected. Measurements were performed on a FACSort machine, upgraded to a FACSCalibur cell analyzer (Becton Dickinson). […] For the fitting, we uploaded the X and Y values of the raw data (after subtracting the background) into a nonlinear least squares regression (curve fitter) program that provided the IC50 value (A of the equation), as well as the c value.
As a reminder, the IC50 is the point on the concentration scale where inhibition reaches its midpoint. With “H-SGIDQEQNNLTRLIEAQIHELQLTQWKIKQLLARILK-NH2 [N36 MUTe,g, reference compound]”, the IC50 stood at 0.936 ± 0.036 µM.
For `CCCCCCCCCCCCCCCC(=O)N[C@@H](CO)C(=O)NCC(=O)N[C@H](C(=O)N[C@@H](CC(=O)O)C(=O)N[C@@H](CCC(N)=O)C(=O)N[C@@H](CCC(=O)O)C(=O)N[C@@H](CCC(N)=O)C(=O)N[C@@H](CC(N)=O)C(=O)N[C@@H](CC(N)=O)C(=O)N[C@@H](CC(C)C)C(=O)N[C@H](C(=O)N[C@@H](CCCNC(=N)N)C(=O)N[C@@H](CC(C)C)C(=O)N[C@H](C(=O)N[C@@H](CCC(=O)O)C(=O)N[C@@H](C)C(=O)N[C@@H](CCC(N)=O)C(=O)N[C@H](C(=O)N[C@@H](Cc1c[nH]cn1)C(=O)N[C@@H](CCC(=O)O)C(=O)N[C@@H](CC(C)C)C(=O)N[C@@H](CCC(N)=O)C(=O)N[C@@H](CC(C)C)C(=O)N[C@H](C(=O)N[C@@H](CCC(N)=O)C(=O)N[C@@H](Cc1c[nH]c2ccccc12)C(=O)N[C@@H](CCCCN)C(=O)N[C@H](C(=O)N[C@@H](CCCCN)C(=O)N[C@@H](CCC(N)=O)C(=O)N[C@@H](CC(C)C)C(=O)N[C@@H](CC(C)C)C(=O)N[C@@H](C)C(=O)N[C@@H](CCCNC(=N)N)C(=O)N[C@H](C(=O)N[C@@H](CC(C)C)C(=O)N[C@@H](CCCCN)C(N)=O)[C@@H](C)CC)[C@@H](C)CC)[C@@H](C)O)[C@@H](C)CC)[C@@H](C)CC)[C@@H](C)O)[C@@H](C)CC` [C16-N36 MUTe,g] (Palmitoyl-SGIDQEQNNLTRLIEAQIHELQLTQWKIKQLLARILK-NH2), the IC50 came out at 0.162 ± 0.004 µM.
Turning to `CCCCCCCCCCCCCCCC(=O)NCCCC[C@H](NC(=O)[C@H](CC(C)C)NC(=O)[C@@H](NC(=O)[C@H](CCCNC(=N)N)NC(=O)[C@H](C)NC(=O)[C@H](CC(C)C)NC(=O)[C@H](CC(C)C)NC(=O)[C@H](CCC(N)=O)NC(=O)[C@H](CCCCN)NC(=O)[C@@H](NC(=O)[C@H](CCCCN)NC(=O)[C@H](Cc1c[nH]c2ccccc12)NC(=O)[C@H](CCC(N)=O)NC(=O)[C@@H](NC(=O)[C@H](CC(C)C)NC(=O)[C@H](CCC(N)=O)NC(=O)[C@H](CC(C)C)NC(=O)[C@H](CCC(=O)O)NC(=O)[C@H](Cc1c[nH]cn1)NC(=O)[C@@H](NC(=O)[C@H](CCC(N)=O)NC(=O)[C@H](C)NC(=O)[C@H](CCC(=O)O)NC(=O)[C@@H](NC(=O)[C@H](CC(C)C)NC(=O)[C@H](CCCNC(=N)N)NC(=O)[C@@H](NC(=O)[C@H](CC(C)C)NC(=O)[C@H](CC(N)=O)NC(=O)[C@H](CC(N)=O)NC(=O)[C@H](CCC(N)=O)NC(=O)[C@H](CCC(=O)O)NC(=O)[C@H](CCC(N)=O)NC(=O)[C@H](CC(=O)O)NC(=O)[C@@H](NC(=O)CNC(=O)[C@@H](N)CO)[C@@H](C)CC)[C@@H](C)O)[C@@H](C)CC)[C@@H](C)CC)[C@@H](C)O)[C@@H](C)CC)[C@@H](C)CC)C(N)=O` [N36 MUTe,g-C16] (H-SGIDQEQNNLTRLIEAQIHELQLTQWKIKQLLARILK(Palmitoyl)-NH2), the IC50 was determined as 0.0088 ± 0.004 µM.
